Assays:
[1] = molecular target: T1, hPPARγ (Homo sapiens, UniProt P37231); test: in vitro assay on human PPAR subtypes (transactivation): hPPARγ; type: cell-based
T1 construct: expressed in transfected cells; host or cells: HEK293
T1 sequence (P37231 238-503 limits assumed): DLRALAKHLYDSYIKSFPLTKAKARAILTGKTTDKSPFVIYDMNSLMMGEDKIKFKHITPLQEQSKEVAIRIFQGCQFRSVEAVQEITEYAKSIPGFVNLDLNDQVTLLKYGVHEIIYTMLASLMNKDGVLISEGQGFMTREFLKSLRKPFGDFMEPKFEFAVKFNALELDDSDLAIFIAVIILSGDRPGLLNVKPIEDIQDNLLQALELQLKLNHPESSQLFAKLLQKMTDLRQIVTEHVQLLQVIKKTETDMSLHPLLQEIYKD
Excerpt: (§1) “Activation” here is defined as the abovementioned downstream response, which in the case of PPAR's is gene transcription. Gene transcription may be measured indirectly as downstream production of proteins reflective of the activation of the particular PPAR subtype under study. Alternatively, an artificial reporter construct may be employed to study the activation of the individual PPAR's expressed in cells. The ligand binding domain of the particular receptor to be studied may be fused to the DNA binding domain of a transcription factor, which produces convenient laboratory readouts, such as the yeast GAL4 transcription factor DNA binding domain. The fusion protein may be transfected into a laboratory cell line along with a Gal4 enhancer, which effects the expression of the luciferase protein. When such a system is transfected into a laboratory cell line, binding of a receptor agonist to the fusion protein will result in light emission.
The PPAR transient transactivation assay may be based on transient transfection into human HEK293 cells of two plasmids encoding a chimeric test protein and a reporter protein respectively. […] The amount of luciferase protein is measured by light emission after addition of the appropriate substrate. […]

[2] = molecular target: T2, hPPARδ (Homo sapiens, UniProt Q03181); test: in vitro assay on human PPAR subtypes (transactivation): hPPARδ; type: cell-based
T2 construct: (PPARδ: aa 128—C-terminus); expressed in transfected cells; host or cells: HEK293
T2 sequence (Q03181 128-441 limits assumed): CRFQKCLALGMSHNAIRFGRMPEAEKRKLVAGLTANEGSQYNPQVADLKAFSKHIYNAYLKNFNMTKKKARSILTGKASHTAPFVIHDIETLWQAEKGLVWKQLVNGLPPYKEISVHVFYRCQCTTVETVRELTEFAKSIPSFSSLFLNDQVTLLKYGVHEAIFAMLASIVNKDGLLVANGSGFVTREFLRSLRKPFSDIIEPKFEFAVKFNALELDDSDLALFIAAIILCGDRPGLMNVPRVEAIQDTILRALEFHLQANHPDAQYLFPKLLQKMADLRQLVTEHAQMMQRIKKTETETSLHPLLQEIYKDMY
Excerpt: as §1
The PPAR transient transactivation assay may be based on transient transfection into human HEK293 cells of two plasmids encoding a chimeric test protein and a reporter protein respectively. The chimeric test protein may be a fusion of the DNA binding domain (DBD) from the yeast GAL4 transcription factor to the ligand binding domain (LBD) of the human PPAR proteins. The PPAR-LBD moiety harbored in addition to the ligand binding pocket also has the native activation domain, allowing the fusion protein to function as a PPAR ligand dependent transcription factor. The GAL4 DBD will direct the chimeric protein to bind only to Gal4 enhancers (of which none existed in HEK293 cells). The reporter plasmid contained a Gal4 enhancer driving the expression of the firefly luciferase protein. After transfection, HEK293 cells expressed the GAL4-DBD-PPAR-LBD fusion protein. The fusion protein will in turn bind to the Gal4 enhancer controlling the luciferase expression, and do nothing in the absence of ligand. […] The amount of luciferase protein is measured by light emission after addition of the appropriate substrate. […]

[3] = system: human retinoid X receptor (hRXR); test: human retinoid X receptor activity

SMILES: Cc1cc(OC/C=C(/c2ccc(F)cc2)c2ccc(C#CCN3CCOCC3)cc2)ccc1OCC(=O)O [Compound 1, (E)-[4-[3-(4-Fluorophenyl)-3-[4-[3-(morpholin-4-yl)propynyl]phenyl]allyloxy]-2-methyl-phenoxy]acetic acid]
- agonist type on PPARγ [1]: partial agonist
- activity on PPARγ in transactivation assays ([1]; in some cases): negligible activity
- agonist type on PPARδ [2]: full agonist
- selectivity for PPARδ over PPARα ([2]; versus PPARα): at least 100 fold
- selectivity for PPARδ over PPARγ ([2]; versus PPARγ): at least 400 fold
- hRXR activity [3]: did not show any

— patent US20220370467A1, “USING OF A PPAR-DELTA AGONIST IN THE TREATMENT OF KIDNEY DISEASE” (Reneo Pharmaceuticals, Inc., priority 2019, published 2022)
